For assay [1], the system named is NMDA receptor. Conditions: C. Carter et al, 1988; cited from earlier work.
For assay [2], the target named is T1, sigma receptor (Rattus norvegicus, UniProt Q9R0C9).
T1 construct: Brains from male Sprague-Dawley rats were homogenized; from tissue; host or cells: rat brain crude membranes (male Sprague-Dawley)
Put plainly: Radioreceptor assay in rat brain homogenate, displacement of [3H]-(+)-3-PPP. Conditions: for Ki: rat brain membranes, 2 nM [3H]-(+)-3-PPP, 1 hr, room temperature, units ± SEM, read-out: Ki apparent. In kind it is binding. As to the method:
Acad. Sci., 83, 8784-8788, 1986] to determine the relative potency of the compounds interacting with the sigma receptor. To determine the effects of the compounds in a sigma receptor assay, crude membrane preparations were prepared as follows. Brains from male Sprague-Dawley rats were homogenized in 10 volumes (wt/vol) of 0.32M sucrose, using a Polytron grinder. The homogenate was centrifuged at 900×G for 10 minutes at 4° C. The supernatant was collected and centrifuged at 22,000×g for 20 minutes at 4° C. The pellet was resuspended in 10 volumes of 50 mM Tris/HCl buffer (pH 7.4) and centrifuged at 22,000×g for 20 minutes at 4° C. The pellet was resuspended in 5 mM Tris/HCl buffer (pH 7.4) to give a final concentration of 250 mg/ml of the crude material. Incubation tubes were prepared in triplicate and contained 0.1 ml of tissue suspension, 2 nM of [^3 H]-(+)-1-propyl-3-(3-hydroxyphenyl)piperidine {[^3 H]-3-(+)-PPP}, and varying concentrations of the displacing ligand (0.1-1000 nM) in a final volume of 0.5 ml. After a 1 hr incubation at room temperature, the contents of the test tubes were filtered through GS filter paper which had been presoaked for at least 2 hours in 0.05% polyethyleneamine. The test tubes were rinsed three times with Tris/HCl buffer. Radioactivity on the filters was determined and […] were calculated from inhibition curves using the method of Cheng and Prusoff [Biochem. Pharmacol., 22, 3099-3108, 1973].
For orientation: Displacement assays read how much labelled ligand stays bound in the presence of the test substance.

The test system of assay [3] is substantia nigra. Put plainly: Circling behavior assay, intranigral microinjection. In kind it is in vivo, rat. Conditions: for Net Turns (individual rat): individual subjects. As to the method:
In order to assess the utility of compounds of the invention in treatment of Parkinsonism, the ability of the compound to stimulate movement following microinjections in the substantia nigra was assessed. Parkinson's disease results from the degeneration of dopamine-secreting neurons in the substantia nigra resulting in a reduced ability to generate movement. […] Such a stimulatory action would predict increased ability to generate voluntary movement in Parkinson's patients showing decreased functionality of this brain area. Current treatments of Parkinson's disease also stimulate this brain area, but show significant side effects that may not be present in compounds of the invention. […] It is expected, therefore, that compounds of the invention would have clinical utility in the treatment of Parkinson's disease and other disorders in which there is a paucity of movement.
Three to seven days before behavioral testing, each animal (245-350 g, N=57) was anesthetized with 50 mg/kg sodium pentobarbital and mounted in a Narishige stereotaxic apparatus. A guide cannula, constructed from 24 gauge thinwall stainless steel tubing, was implanted with its tip 4.0 mm above the left substantia nigra pars reticulata (coordinates: 3.2 mm anterior; 2.2 mm lateral; 4.7 mm ventral), from lambda and the skull surface. Cannulae were secured with stainless steel screws and dental acrylic. Stainless steel stylers kept the cannulae sealed except during drug infusion. All drugs were prepared on the day of testing. Animals were gently restrained and the drugs were administered in a volume of 0.5 ul over 72 seconds through a 31 gauge microneedle that was constructed to extend 4.0 mm beyond the tips of the guide cannulae. […] Animals received a single injection of saline (n=6), 1.5 nmol (n=5), 3.7 nmol (n=6), 9.3 nmol (n=7 or 14.9 nmol (n=5) in 0.5 ul 0.9% NaCl. Following injection, each animal was fitted with a harness which was connected to an optical position transducer interfaced to a compouter that derived the number and direction of half turns for 30 min. Each rat received a single injection of the test drug to minimize tissue damage. Rats were sacrificed by an overdose of sodium pentobarbital and perfused intracardially with 10% formalin. Brains were fixed in a 30% sucrose-formalin solution and coronal sections (40 um) were taken throughout the extent of the injection site. The sections were stained with cresyl violet and examined under a microscope to localize injection sites. Only subjects with histologically confirmed injection sites were used in the data analyses. For the studies of circling behavior, the number of net (contalateral-isolateral) rotations were computed for each rat and subjected to analysis of variance. […] Results showing contralateral circling behavior produced by intranigral microinjections of various doses of Compound #1 are reported in Table IV and illustrated in FIG. 1.
Individual subjects are shown along with the average and standard deviation of the effect.

Assay [4] addresses T2, sigma receptors (Cavia porcellus, UniProt Q60492).
T2 construct: crude synaptosomal (P2) membrane fraction of guinea pig brain for sigma receptors; tissue Pel-Freeze, Rogers, Ak; host or cells: guinea pig brain minus cerebellum, crude synaptosomal (P2) membranes
Put plainly: Radioreceptor assay in guinea pig brain homogenate (P2 membranes), [3H]-(+)-3-PPP. In kind it is binding.

Values joined by “and” are separate entries in the source; they are usually repeats but may differ in a detail not shown here. Identical values can stand only once. “Also recorded” adds a separate entry of the source. Like-named read-outs stand apart in the source and are kept apart here.

T2 sequence (Q60492 whole entry): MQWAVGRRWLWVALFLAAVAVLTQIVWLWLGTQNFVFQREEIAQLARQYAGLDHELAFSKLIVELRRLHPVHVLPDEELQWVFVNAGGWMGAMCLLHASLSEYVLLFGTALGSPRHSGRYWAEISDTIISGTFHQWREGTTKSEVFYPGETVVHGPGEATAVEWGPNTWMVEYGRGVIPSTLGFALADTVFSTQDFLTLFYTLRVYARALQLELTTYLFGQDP
T1 sequence (Q9R0C9 whole entry): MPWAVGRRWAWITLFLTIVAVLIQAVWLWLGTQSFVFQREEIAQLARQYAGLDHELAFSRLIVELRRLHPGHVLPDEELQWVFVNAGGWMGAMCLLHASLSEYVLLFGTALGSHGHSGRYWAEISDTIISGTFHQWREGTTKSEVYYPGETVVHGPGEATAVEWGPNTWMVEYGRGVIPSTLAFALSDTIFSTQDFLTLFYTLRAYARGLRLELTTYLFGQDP

As to “1-(4-chlorophenyl)-2-[1-(4-fluorophenyl)piperidinyl]ethanol”, the “NMDA receptor antagonism (in words)” value in assay [1] was “non-competitive NMDA receptor antagonists”.

Turning to `CN(CCc1ccc(Cl)c(Cl)c1)[C@@H]1CCCC[C@@H]1N1CCCC1` (racemic) [Compound No. 1, (±)-cis-N-[2-(3,4-dichlorophenyl)ethyl]-N-methyl-2-(1-pyrrolidinyl)cyclohexylamine], the “Binding to sigma receptors (in words)” value in assay [2] was “binds to sigma receptors”. The values for the Ki in assay [2] and in assay [4] were 230 ± 70 nM and 1.8 ± 0.4 nM, respectively. Further, the “Net Turns, Average” value was 11.00 1/2 contralateral rotations ne in assay [3] (dose 1.49 nmol, Stan Dev 18.94); 18.33 1/2 contralateral rotations ne in assay [3] (dose 3.72 nmol, Stan Dev = 7.87); 38.14 1/2 contralateral rotations ne in assay [3] (dose 9.3 nmol, Stan Dev 21.46); 31.00 1/2 contralateral rotations ne in assay [3] (dose 14.9 nmol, Stan Dev = 27.08). In addition, the “Net Turns (individual rat)” value was 25.00 1/2 contralateral rotations ne and 17.00 1/2 contralateral rotations ne and 5.00 1/2 contralateral rotations ne and 4.00 1/2 contralateral rotations ne and 38.00 1/2 contralateral rotations ne in assay [3] (dose 1.49 nmol); 13.00 1/2 contralateral rotations ne and 23.00 1/2 contralateral rotations ne and 5.00 1/2 contralateral rotations ne and 28.00 1/2 contralateral rotations ne and 25.00 1/2 contralateral rotations ne and 16.00 1/2 contralateral rotations ne in assay [3] (dose 3.72 nmol); 28.00 1/2 contralateral rotations ne and 20.00 1/2 contralateral rotations ne and 46.00 1/2 contralateral rotations ne and 87.00 1/2 contralateral rotations ne and 30.00 1/2 contralateral rotations ne and 22.00 1/2 contralateral rotations ne and 34.00 1/2 contralateral rotations ne in assay [3] (dose 9.3 nmol); 6.00 1/2 contralateral rotations ne and 58.00 1/2 contralateral rotations ne and 13.00 1/2 contralateral rotations ne and 61.00 1/2 contralateral rotations ne and 7.00 1/2 contralateral rotations ne and 75.00 1/2 contralateral rotations ne and 24.00 1/2 contralateral rotations ne and 4.00 1/2 contralateral rotations ne in assay [3] (dose 14.9 nmol). The “Circling behavior compared to saline control” value in assay [3] (intranigral microinjection 1.5-14.9 nmol, F4,27=3.09, p=0.032) is recorded as “significant dose-related increases in circling behavior; also recorded: increasing doses of Compound #1 produce marked effects, which are statistically significant”. Also, the “Doses producing circling compared with (+)-pentazocine” value in assay [3] (intranigral, (+)-pentazocine data published previously) is given as “doses lower than those necessary to produce the effect with (+)-pentazocine”.

In turn, `CN(CCc1ccccc1)[C@@H]1CCCC[C@@H]1N1CCCC1` (racemic) [compound 9, (±)-cis-N-methyl-N-(2-phenylethyl)-2-(1-pyrrolidinyl)cyclohexylamine] returned a Ki in assay [4] of 113 ± 8 nM.

In the case of `CN(CCc1ccc2ccccc2c1)[C@@H]1CCCC[C@@H]1N1CCCC1` (racemic) [compound 10, (±)-cis-N-methyl-N-[2-(β-naphthyl)ethyl]-2-(1-pyrrolidinyl)cyclohexylamine], the Ki in assay [4] (guinea pig brain P2 membranes, 3 nM [3H]-3-PPP, pH 8.0, 120 min, 25° C., units ± SEM, read-out: Ki) was 33 ± 5 nM.

The compound `CN(Cc1ccc(Cl)c(Cl)c1)[C@@H]1CCCC[C@@H]1N1CCCC1` (relative stereo) [compound 17, (±)-cis-N-[2-(3,4-dichlorophenyl)methyl]-N-methyl-2-(1-pyrrolidinyl)cyclohexylamine] gave a Ki in assay [4] of 1.2 ± 0.03 nM.

`CN(CCc1ccc(Cl)c(Cl)c1)[C@H]1CCCC[C@H]1N1CCCC1` [Compound No. 7, 1S,2R-(-)-cis-N-[2-(3,4-dichlorophenyl)ethyl]-N-methyl-2-(1-pyrrolidinyl)cyclohexylamine]: the values for the Ki in assay [2] and in assay [4] were 30 ± 10 nM and 1.3 ± 0.3 nM, respectively.

In assay [4], `CCCN(CCc1ccc(Cl)c(Cl)c1)[C@@H]1CCCC[C@@H]1N1CCCC1` [compound 4, (1R,2S)-(-)-cis-N-[2-(3,4-dichlorophenyl)-ethyl]-N-(n-propyl)-2-(1-pyrrolidinyl)cyclohexylamine] showed a Ki of 56 ± 9.9 nM.

`CCN(CCc1ccc(Cl)c(Cl)c1)[C@@H]1CCCC[C@@H]1N1CCCC1` [compound 5, (1R,2S)-(-)-cis-N-ethyl-N-[2-(3,4-dichlorophenyl)ethyl]-2-(1-pyrrolidinyl)cyclohexylamine] showed a Ki in assay [4] of 3.5 ± 1 nM.

`CN(CCc1ccc2c(c1)OCO2)[C@H]1CCCC[C@H]1N1CCCC1` [compound 11, 1S,2R-(-)-cis-N-methyl-N-[2-(3,4-methylenedioxyphenyl)ethyl]-2-(1-pyrrolidinyl)cyclohexylamine] gave a Ki in assay [4] of 90 ± 20 nM.

`CN(CCc1ccc2c(c1)OCO2)[C@@H]1CCCC[C@@H]1N1CCCC1` [compound 12, 1R,2S-(+)-cis-N-methyl-N-[2-(3,4-methylenedioxyphenyl)ethyl]-2-(1-pyrrolidinyl)cyclohexylamine] showed a Ki in assay [4] of 31 ± 0.05 nM.

On to `CCN(CCc1ccc(Cl)c(Cl)c1)[C@H]1CCCC[C@H]1N1CCCC1` [compound 14, 1S,2R-(-)-cis-N-[2-(3,4-dichlorophenyl)ethyl]-N-ethyl-2-(1-pyrrolidinyl)cyclohexylamine], for which the Ki in assay [4] is 3.1 ± 0.55 nM.

In assay [4], `CCCN(CCc1ccc(Cl)c(Cl)c1)[C@H]1CCCC[C@H]1N1CCCC1` [compound 16, 1S,2R-(-)-cis-N-[2-(3,4-dichlorophenyl)ethyl]-N-(1-propyl)-2-(1-pyrrolidinyl)cyclohexylamine] showed a Ki of 140 ± 17 nM.

In the case of `CC(C(O)c1ccc(O)cc1)N1CCC(Cc2ccccc2)CC1` (centres unmarked) [ifenprodil], the “NMDA receptor antagonism (in words)” value in assay [1] is listed as “non-competitive NMDA receptor antagonists”.
